Assays:
[1] = target: T1, BCRP (breast cancer resistance protein) (Homo sapiens, UniProt Q9UNQ0); experiment: transport inhibition in Caco-2 monolayers; format: cell-based
T1 construct: gene ABCG2; endogenous transporter in Caco-2 cell monolayers
T1 sequence (Q9UNQ0 1-655): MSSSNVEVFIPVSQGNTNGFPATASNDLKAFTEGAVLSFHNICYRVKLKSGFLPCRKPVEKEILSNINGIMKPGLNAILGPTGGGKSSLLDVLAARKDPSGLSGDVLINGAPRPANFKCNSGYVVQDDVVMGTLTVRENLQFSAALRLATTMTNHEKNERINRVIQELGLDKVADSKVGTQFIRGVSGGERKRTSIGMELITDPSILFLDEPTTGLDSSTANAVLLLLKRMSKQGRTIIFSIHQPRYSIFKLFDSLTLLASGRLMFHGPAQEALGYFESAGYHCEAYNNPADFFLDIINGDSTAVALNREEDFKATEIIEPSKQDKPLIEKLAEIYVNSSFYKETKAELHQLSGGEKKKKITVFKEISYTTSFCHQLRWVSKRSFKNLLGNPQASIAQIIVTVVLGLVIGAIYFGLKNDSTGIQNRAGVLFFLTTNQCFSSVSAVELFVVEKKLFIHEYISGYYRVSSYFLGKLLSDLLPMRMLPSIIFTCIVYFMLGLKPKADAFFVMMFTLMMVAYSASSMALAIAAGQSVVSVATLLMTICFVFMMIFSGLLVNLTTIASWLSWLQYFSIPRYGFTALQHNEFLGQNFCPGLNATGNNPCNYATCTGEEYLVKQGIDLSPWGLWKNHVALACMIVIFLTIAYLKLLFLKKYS
From the text: transport inhibition in Caco-2 monolayers on BCRP (breast cancer resistance protein)

OCT2 = target: T2, OCT2 (Homo sapiens, UniProt O15244); experiment: uptake inhibition in HEK293 cells expressing the transporter; format: cell-based
T2 construct: gene SLC22A2; expressed in HEK293 cells
T2 sequence (O15244 1-555): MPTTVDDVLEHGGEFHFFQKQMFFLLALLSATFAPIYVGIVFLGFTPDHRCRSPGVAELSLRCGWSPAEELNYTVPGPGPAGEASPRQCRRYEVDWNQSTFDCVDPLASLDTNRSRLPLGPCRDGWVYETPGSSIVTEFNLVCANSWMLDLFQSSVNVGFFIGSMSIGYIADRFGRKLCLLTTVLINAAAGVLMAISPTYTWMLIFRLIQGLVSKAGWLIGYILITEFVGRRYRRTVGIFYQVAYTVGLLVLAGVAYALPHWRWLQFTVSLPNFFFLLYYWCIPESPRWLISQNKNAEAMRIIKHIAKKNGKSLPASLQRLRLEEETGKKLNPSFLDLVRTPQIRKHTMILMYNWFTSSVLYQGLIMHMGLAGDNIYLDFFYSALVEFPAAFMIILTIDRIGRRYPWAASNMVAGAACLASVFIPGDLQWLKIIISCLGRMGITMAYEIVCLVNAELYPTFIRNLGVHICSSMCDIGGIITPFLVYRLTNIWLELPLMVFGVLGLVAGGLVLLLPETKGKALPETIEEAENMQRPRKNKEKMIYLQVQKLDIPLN
From the text: uptake inhibition in HEK293 cells expressing the transporter on OCT2

UGT1A1 = target: T3, UGT1A1 (Homo sapiens, UniProt P22309); experiment: glucuronidation inhibition in human liver microsomes; format: biochemical; conditions: substrate beta-estradiol, competitive
T3 construct: native enzyme in human liver microsomes
T3 sequence (P22309 26-533): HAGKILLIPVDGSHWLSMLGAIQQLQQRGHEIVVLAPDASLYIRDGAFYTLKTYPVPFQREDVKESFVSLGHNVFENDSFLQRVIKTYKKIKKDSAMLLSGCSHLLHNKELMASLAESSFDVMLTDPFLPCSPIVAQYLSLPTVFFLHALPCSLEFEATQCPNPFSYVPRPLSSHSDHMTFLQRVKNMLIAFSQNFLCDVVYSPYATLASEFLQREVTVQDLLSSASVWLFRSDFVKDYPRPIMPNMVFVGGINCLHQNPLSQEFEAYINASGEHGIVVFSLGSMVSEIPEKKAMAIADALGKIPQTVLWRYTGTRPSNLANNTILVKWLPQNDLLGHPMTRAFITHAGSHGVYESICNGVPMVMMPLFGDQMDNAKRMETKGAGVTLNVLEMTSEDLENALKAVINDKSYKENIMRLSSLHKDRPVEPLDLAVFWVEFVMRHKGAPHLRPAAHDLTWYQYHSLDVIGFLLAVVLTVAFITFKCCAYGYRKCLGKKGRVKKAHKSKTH
From the text: glucuronidation inhibition in human liver microsomes on UGT1A1

CYP3A4 (Table 1); CYP3A = target: T4, CYP3A4 (Table 1); CYP3A (Homo sapiens, UniProt P08684); experiment: CYP activity inhibition in human liver microsomes; format: biochemical; conditions: read-out: IC50 (μM) / Direct inhibition
T4 construct: native enzyme in human liver microsomes
From the text: CYP activity inhibition in human liver microsomes on CYP3A4 (Table 1); CYP3A (text)

OAT1 = target: T5, OAT1 (Homo sapiens, UniProt Q4U2R8); experiment: uptake inhibition in HEK293 cells expressing the transporter; format: cell-based
T5 construct: gene SLC22A6; expressed in HEK293 cells
T5 sequence (Q4U2R8 1-563): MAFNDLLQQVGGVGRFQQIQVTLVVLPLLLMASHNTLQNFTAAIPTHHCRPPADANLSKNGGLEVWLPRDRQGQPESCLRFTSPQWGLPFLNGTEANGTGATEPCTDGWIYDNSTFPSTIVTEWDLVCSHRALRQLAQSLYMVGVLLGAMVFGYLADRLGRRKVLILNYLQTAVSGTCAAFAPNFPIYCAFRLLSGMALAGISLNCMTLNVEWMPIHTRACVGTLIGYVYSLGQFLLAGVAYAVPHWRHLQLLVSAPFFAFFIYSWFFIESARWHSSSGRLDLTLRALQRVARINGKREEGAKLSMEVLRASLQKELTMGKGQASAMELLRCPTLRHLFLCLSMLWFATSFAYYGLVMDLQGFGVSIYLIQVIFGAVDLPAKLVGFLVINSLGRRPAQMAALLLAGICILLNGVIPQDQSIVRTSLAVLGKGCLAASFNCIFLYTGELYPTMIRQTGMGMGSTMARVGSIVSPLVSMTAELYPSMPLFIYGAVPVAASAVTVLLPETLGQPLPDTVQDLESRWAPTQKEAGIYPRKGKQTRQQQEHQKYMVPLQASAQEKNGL
From the text: uptake inhibition in HEK293 cells expressing the transporter on OAT1

T4 sequence (P08684 2-503): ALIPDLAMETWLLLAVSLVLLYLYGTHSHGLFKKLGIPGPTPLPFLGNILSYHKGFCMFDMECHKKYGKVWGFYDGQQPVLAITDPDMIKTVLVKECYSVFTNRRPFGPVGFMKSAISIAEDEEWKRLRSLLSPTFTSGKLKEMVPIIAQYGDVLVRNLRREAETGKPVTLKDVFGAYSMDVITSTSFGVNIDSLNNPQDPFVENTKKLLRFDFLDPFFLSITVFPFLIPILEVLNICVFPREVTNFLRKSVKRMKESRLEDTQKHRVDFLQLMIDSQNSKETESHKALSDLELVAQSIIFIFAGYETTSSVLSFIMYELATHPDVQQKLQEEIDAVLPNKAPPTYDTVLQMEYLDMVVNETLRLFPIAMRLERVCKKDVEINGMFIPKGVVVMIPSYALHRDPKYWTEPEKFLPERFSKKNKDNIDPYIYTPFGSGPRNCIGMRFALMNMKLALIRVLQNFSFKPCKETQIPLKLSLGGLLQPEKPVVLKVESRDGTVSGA

IC50 [1]: 0.467 µM
IC50 (OCT2): > 28.7 µM
Ki (UGT1A1; read-out: Parameters / K i): 1.19 µM
IC50 (UGT1A1; direct inhibition): 1.45 µM
IC50 (CYP3A4 (Table 1); CYP3A): 74.6 µM
IC50 (OAT1): 71.2 µM
Compound: COC[C@H]1CN(C(=O)[C@]2(F)CN(C3CCCC3)C[C@H]2c2ccc(OC)cc2)C[C@@H]1c1ccc(C(F)(F)F)cc1N1CCC(C(=O)O)CC1 [dersimelagon]
